# Entries after “also recorded” stand apart in the source; their conditions may differ.
# B1: IL-31: recombinant murine IL-31 (Bristol-Myers Squibb), known cytokine pruritogen (protein, UniProt Q6EAL8 24-163, looked up)
# Interleukin-31: TCSLSFGAPISKEDLRTTIDLLKQESQDLYNNYSIKQASGMSADESIQLPCFSLDREALTNISVIIAHLEKVKVLSENTVDTSWVIRWLTNISCFNPLNLNISVPGNTDESYDCKVFVLTVLKQFSNCMAELQAKDNTTC
# B2: IL-13: recombinant murine IL-13 (Peprotech) (protein, UniProt P20109 19-131, looked up)
# Interleukin-13: APGPVPRSVSLPLTLKELIEELSNITQDQTPLCNGSMVWSVDLAAGGFCVALDSLTNISNCNAIYRTQRILHGLCNRKAPTTVSSLPDTKIEVAHFITKLLSYTKQLFRHGPF
# B3: IL-5: recombinant murine IL-5 (Peprotech) (protein, UniProt P04401 21-133, looked up)
# Interleukin-5: MEIPMSTVVKETLTQLSAHRALLTSNETMRLPVPTHKNHQLCIGEIFQGLDILKNQTVRGGTVEMLFQNLSLIKKYIDRQKEKCGEERRRTRQFLDYLQEFLGVMSTEWAMEG
# Key:
# wild type (WT) mice = assay: Topical MC903 treatment versus vehicle (AD-like inflammation and itch); format: in vivo, mouse; conditions: daily topical to ears, compared to vehicle (EtOH)
# Method: (§1) For induction of AD-like inflammation and itch, mice were topically treated once daily with 2 nmol of MC903 (calcipotriol, Tocris Bioscience) for 7 days or 1 nmol of MC903 for 12 days on both ears in 20 μL of ethanol (vehicle) as previously described (Kim et al., 2013a, 2014, Siracusa et al., 2011, 2013b). Ear thickness measurements were performed daily with dial calipers as previously described (Kim et al., 2013a, 2014). At the end of the MC903 treatment, murine ear skin tissues were fixed in 4% paraformaldehyde (PFA) and embedded in paraffin before sectioning and staining with Hematoxylin & Eosin (H&E). Histology score was determined by the following formula using ImageJ analysis software (NIH) as previously described: (total number of lymphocytes per high power field (HPF)+thickness of the epidermis measured in microns from the basement membrane to the top of the stratum corneum) divided by 100 (Kim et al., 2014). All images were captured with a NanoZoomer 2.0-HT System (Hamamatsu). Murine disease and behavioral assessment data (below) were derived from two to three independent experiments. For behavioral assessments, mice were first acclimated to the recording room and behavior chambers at least one day prior to testing. On the day of testing, mice were again acclimated to the recording room and behavior chambers and then video recorded. The video recordings were then manually scored for number of scratching bouts per 30 minute block. One scratching bout was defined as one instance of lifting the hind paw from the floor, scratching, and returning the paw to the floor or placing the paw in the animal's mouth. All behavioral tests were performed on sex- and age-matched adult mice (8-12 weeks old).
# mouse DRG neurons = assay: Ratiometric calcium imaging of cultured murine DRG neurons; format: cell-based; conditions: for responsive neurons as a percentage of total mouse DRG neurons: cytokines 300 nM, histamine 50 μM, responsive = change in fluorescence ratio >10% of baseline; for calcium response of DRG neurons to stimulation: ex vivo stimulation, recombinant murine cytokine 300 nM; for cytokine-responsive neurons that also responded to IL-31 or histamine: serial stimulation with the cytokine, then IL-31 and histamine
# Method: Murine DRG neurons were isolated and cultured using a previously published protocol with slight modification (Malin et al., 2007). Briefly, laminectomies were performed on mice and bilateral DRG were removed. After removal of connective tissues, DRG were transferred to 1 mL Ca^2+/Mg^2+-free Hank's Balanced Salt Solution (HBSS) containing 1 μL saturated NaHCO3, 0.35 mg L-cysteine, and 20 U papain (Worthington) and incubated at 37° C. for 20 min. The suspension was centrifuged, and the supernatant was removed and replaced with 1 mL Ca^2+/Mg^2+-free HBSS containing 3.75 mg collagenase type II (Worthington) and 7.5 mg dispase (Worthington) and incubated at 37° C. for 20 min. After digestion, neurons were gently triturated, pelleted, and then resuspended in Neurobasal-A medium containing 2% B-27 supplement (Gibco), 100 U/mL penicillin plus 100 μg/mL streptomycin (Sigma), 100 ng/mL nerve growth factor (Sigma), and 10% heat-inactivated FBS (Sigma). Neurons were then plated on a 12 mm glass coverslip pre-coated with poly-L-lysine (Sigma) and laminin (Sigma) and cultured under a humidified atmosphere of 5% CO2 at 37° C. for 18-24 hours before use.
# Cultured DRG neurons were loaded with 4 μM Fura-2 AM (Life Technologies) in overnight DRG culture medium at 37° C. for 45 minutes. Cells were then washed three times and incubated in calcium imaging buffer (130 mM NaCl, 3 mM KCl, 2.5 mM CaCl2, 0.6 mM MgCl2, 10 mM HEPES, 10 mM glucose, 1.2 mM NaHCO3, pH 7.45) at room temperature for 30 minutes before use. All recombinant murine cytokines (IL-4, IL-5, and IL-13: Peprotech, IL-31: Bristol-Myers Squibb) were used at 300 nM, while histamine (Sigma) and capsaicin (Sigma) were used at 50 μM and 300 nM, respectively. Only sensory neurons that responded to a final challenge of 100 mM KCl were used in analyses. Fluorescence was recorded at 340 nm and 380 nm excitation wavelengths (F340, F380) using an inverted Nikon Ti-E microscope with NIS-Elements imaging software (Nikon Instruments). Fluorescence ratios (F340/F380) were normalized to baseline and used to reflect changes in intracellular Ca^2+ and neuronal activation upon stimulation. […] Data were derived from two to three independent experiments.
# CIP patient (Case 2) = assay: Clinical history of CIP patient Case 2 (prior treatment); format: in vivo, human; conditions: course of oral prednisone prescribed for polymyalgia rheumatica
# Method: This example describes four elderly CIP patients with evidence of marked immune dysregulation after exclusion of other cutaneous and systemic causes of pruritus.
# TABLE 2 Legend: (a) Average and peak Numerical Rating Scale (NRS) itch scores at the time of presentation to our clinic are noted, respectively. (b) A thorough workup was performed to establish the diagnosis of CIP by exclusion of other cutaneous and systemic causes of pruritus, including psychiatric and neurologic conditions, renal failure, biliary dysfunction, thyroid abnormalities, HIV/AIDS, hepatitis B, and hepatitis C. […] (d) Outside of two episodes of septic arthritis arising from knee replacement surgery, the patient had no history of persistent or recurrent infections, autoimmunity, or malignancy.
# MC903-treated WT mice = assay: Pharmacologic JAK inhibition in MC903-induced AD-associated itch model; format: in vivo, mouse
# Method: as §1, with “old). Stock ruxolitinib (Selleck Chemicals) solutions were prepared in DMSO (Sigma) per the manufacturer's instructions. For systemic treatments, mice treated twice daily with 100 μg ruxolitinib diluted in 100 μl PBS by intraperitoneal (i.p.) injection. For intrathecal (i.t.) ruxolitinib treatments, mice were injected 24 hours before behavioral assays with 10 μg ruxolitinib diluted in 10 μl PBS. Control mice were injected with appropriate vehicle controls (DMSO in PBS) of equivalent volumes.” for “old).”
# AD patients = conditions: cited from earlier work
# patients with CIP = assay: NRS itch scoring of CIP patients under treatment
# [1] = i.p. 100 μg twice daily during MC903 treatment, Day 7
molecule,measurement,setting,value
"C=C1/C(=C\C=C2/CCC[C@]3(C)[C@@H]([C@H](C)/C=C/[C@@H](O)C4CC4)CC[C@@H]23)C[C@@H](O)C[C@@H]1O [MC903, calcipotriol]",histologic score of inflammation,wild type (WT) mice,higher
same,itch phenotype by scratching bouts over time,wild type (WT) mice,marked chronic itch phenotype
same,skin inflammation measured by ear skin thickening and histologic features,wild type (WT) mice,robust skin inflammation
NCCc1c[nH]cn1 [histamine],responsive neurons as a percentage of total mouse DRG neurons,mouse DRG neurons,~25%
C[C@]12C=CC(=O)C=C1CC[C@@H]1[C@@H]2C(=O)C[C@@]2(C)[C@H]1CC[C@]2(O)C(=O)CO [prednisone],muscle weakness,CIP patient (Case 2),improved
same,pruritus,CIP patient (Case 2),did not resolve
N#CC[C@H](C1CCCC1)n1cc(-c2ncnc3[nH]ccc23)cn1 [ruxolitinib],ear skin thickening,MC903-treated WT mice; [1],"statistically significant, but only slight, reduction"
same,histologic parameters of disease,MC903-treated WT mice; [1],"statistically significant, but only slight, reduction"
same,scratching bouts,MC903-treated WT mice; [1],significantly reduced
same,"peripheral skin inflammation (ear thickness, histopathology, histology score)",MC903-treated WT mice; single intrathecal (i.t.) injection 10 μg,no effect
same,scratching bouts,"MC903-treated WT mice; single intrathecal (i.t.) injection 10 μg, 24 hours before behavioral assay",marked reduction
C[C@@H]1CCN(C(=O)CC#N)C[C@@H]1N(C)c1ncnc2[nH]ccc12 [tofacitinib],itch symptoms in AD patients,AD patients; pilot studies and Phase II clinical trials,rapid and significant reduction
same,NRS itch score / itch symptoms,"patients with CIP; CIP patients (N=5), 5 mg by mouth twice daily, one month",marked improvement; also recorded: improved significantly; also recorded: dramatic improvement
same,"daily itch scores (NRS), single subject","patients with CIP; one CIP subject over 70 days, cyclosporine alone, then switched to JAK inhibitor",significant improvement
IL-4: recombinant murine IL-4 (Peprotech),responsive neurons as a percentage of total mouse DRG neurons,mouse DRG neurons,4.1±0.5%
same,calcium response of DRG neurons to stimulation,mouse DRG neurons,rapid rise of intracellular calcium in a subset of neurons
same,cytokine-responsive neurons that also responded to IL-31 or histamine,mouse DRG neurons,88.9%
dupilumab: an anti-IL-4Rα monoclonal antibody,disease and itch severity in AD patients,AD patients; Phase II and III clinical trials,remarkable improvement
B1,responsive neurons as a percentage of total mouse DRG neurons,mouse DRG neurons,approximately 5%
B2,responsive neurons as a percentage of total mouse DRG neurons,mouse DRG neurons,3.3±0.8%
same,calcium response of DRG neurons to stimulation,mouse DRG neurons,rapid rise of intracellular calcium in a subset of neurons
same,cytokine-responsive neurons that also responded to IL-31 or histamine,mouse DRG neurons,75.0%
B3,calcium response of DRG neurons to stimulation,mouse DRG neurons,no responses; also recorded: does not activate

# Reference: patent publication US11931412B2, “JAK1 inhibitors and uses thereof” (Washington University, priority 2016, dated 2024)
